Experimental data published in patent publication US11766414B2, “Compositions, delivery systems, and methods useful in tumor therapy” (Indi Molecular, Inc., priority 2020, dated 2023).
Read-outs that look alike come from different tables or passages of the source. Each block holds one compound with its values, some of them ahead of it. Starred links: 1 amine or outer side, 2 acyl side, 3 side chain; linkers in the order of their positions; H or OH if unused. Positions of bridges follow the written chain, without caps; N, C: chain ends. Non-standard residues stand in square brackets, D forms with d. Residues, ends and D or L forms follow the SMILES beside them. Triazole bridges read from a SMILES are 1,4-linked. *: point of attachment. DOTA = O=C(O)CN1CCN(CC(=O)O)CCN(CC(=O)*)CCN(CC(=O)O)CC1; Pteroyl = Nc1nc2ncc(CNc3ccc(C(=O)*)cc3)nc2c(=O)[nH]1; Biotin = O=C1N[C@H]2[C@H](CS[C@H]2CCCCC(=O)*)N1; PEG10 = NCCOCCOCCOCCOCCOCCOCCOCCOCCOCCOCCC(=O)O; Butanoyl(4-(4-MePh)) = Cc1ccc(CCCC(=O)*)cc1; Lys(N3) = [N-]=[N+]=NCCCC[C@H](N)C(=O)O; γGlu = O=C(O)[C@H](CCC(=O)[*:2])N[*:1]; PEG7 = NCCOCCOCCOCCOCCOCCOCCOCCC(=O)O; AEEEA = NCCOCCOCCOCC(=O)O; Pra = C#CC[C@H](N)C(=O)O; X1 = NOCC(=O)*

Tests used:
FOLR1 = FOLR1 (Homo sapiens, UniProt P15328); test: ELISA assay of FOLR1 binding
Text: FIG. 5 is a diagram of ELISA assay of FOLR1 binding of heterobiligands.

human recombinant NEP = human recombinant NEP (Homo sapiens, UniProt P08473); test: NEP enzymatic cleavage assay (MALDI, HPLC); format: biochemical; settings: for NEP-mediated cleavage: MALDI
Method: In order to test the susceptibility of GFK and MVK linkers to NEP-mediated cleavage, the peptide (Folate-hshta-Lys(MPBA)-Gly-Phe-Lys(DOTA) (SEQ ID NO:6)) was incubated with human recombinant NEP and analyzed the solution for the presence of cleaved adducts. MALDI was utilized to monitor the cleavage of a PCC heterobiligand that contains a NEP protease recognizable sequence (G-F-K). The PCC concentration was constant and the NEP concentration was titrated down from 10 nM to 1 nM, 0.1 nM, 0.01 nM, and no NEP. The NEP-mediated cleaved adduct was identified by mass. 10 μM PCC containing the GFK linker was combined with varying amounts of NEP. […] Below 0.1 nM no cleavage was observed. • Folate-hshta-Lys(MPBA)-Gly-Phe-Lys(DOTA) (SEQ ID NO:6) • Molecular weight 2231.42
The NEP-mediated cleavage was also monitored by HPLC. In agreement with the MALDI spectra, the HPLC chromatograms show depletion of the parent brush-border heterobiligand (retention time 17.1 minutes), dose-dependent on the amount of NEP spiked into the sample (10 nM, 1 nM, 0.1 nM, 0.01 nM, and no NEP). An appearance of a new peak (retention time 16.5 minutes) in concert with the depletion of the starting material is presumed to be the cleaved folate-containing peptide.
In order to test the specificity of NEP, a non-cleavable linker (PEG3) was also assayed.
To reduce the radioactive dose to the kidney, Indi ^177Lu-7327 was constructed to incorporate a GFK linker that is susceptible to cleavage by enzymes found predominately in the kidney's brush border. These enzymes cleave off the radionuclide-chelator complex, which is quickly eliminated by the kidney for excretion in the urine. The zinc metalloprotease neprilysin (NEP) is expressed with high abundance in the kidney. […] To confirm NEP-mediated cleavage of the GFK linker in Indi 7327, the peptide was incubated with recombinant human NEP at 37° C. for 1 h and analyzed by matrix-assisted laser desorption/ionization mass spectrometry (MALDI-MS) for the evolution of cleaved adducts (FIG. 42). […] The expected cleaved adduct (mass: 1283.16 m/z) appears in the samples containing 10, 1.0, and 0.1 nM NEP. […] Below 0.1 nM NEP, no cleavage was observed. In addition to confirming the selectivity of NEP for the GFK linker, it is also important to note that the remaining portions of the Indi 7327 were impervious to the enzyme.

[1] = Plasma protein binding, human plasma; format: in vitro ADME
Method: (§1) HTD 96 a/b regenerated cellulose membrane strips with mass cutoff of 12-14 kDa were soaked in ultra-pure water at room temperature for 1 hour. Each swelled membrane was then soaked in 20:80 ethanol:water for 20 minutes.
(§2) Just prior to the experiment, the membranes were re-soaked in ultra-pure water. Plasma was prepared by thawing under cold water. The plasma was centrifuged to remove any clots and pH was adjusted to 7.0-8.0. Test articles and control compounds were diluted to 2 μM. The dialysis device was loaded by transferring 150 μL of the test article (in triplicate) to the donor side. The dialysis device was placed in a humidified incubator at 37° C. with 5% CO2 in a shaking platform that rotated slowly for 4 hours. After incubation, 50 μL of the supernatant was taken from both sides and analyzed by LC-MS/MS.

[2] = Plasma protein binding, CD-1 mouse plasma; format: in vitro ADME
Method: as §1, §2

FOLR1, sequence (P15328 25-234): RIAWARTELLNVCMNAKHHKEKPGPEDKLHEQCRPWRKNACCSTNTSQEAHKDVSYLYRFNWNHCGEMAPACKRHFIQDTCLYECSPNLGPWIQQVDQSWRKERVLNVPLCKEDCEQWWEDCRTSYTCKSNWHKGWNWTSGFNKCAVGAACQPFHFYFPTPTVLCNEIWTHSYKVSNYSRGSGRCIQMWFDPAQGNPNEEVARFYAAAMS
human recombinant NEP, sequence (P08473 whole entry): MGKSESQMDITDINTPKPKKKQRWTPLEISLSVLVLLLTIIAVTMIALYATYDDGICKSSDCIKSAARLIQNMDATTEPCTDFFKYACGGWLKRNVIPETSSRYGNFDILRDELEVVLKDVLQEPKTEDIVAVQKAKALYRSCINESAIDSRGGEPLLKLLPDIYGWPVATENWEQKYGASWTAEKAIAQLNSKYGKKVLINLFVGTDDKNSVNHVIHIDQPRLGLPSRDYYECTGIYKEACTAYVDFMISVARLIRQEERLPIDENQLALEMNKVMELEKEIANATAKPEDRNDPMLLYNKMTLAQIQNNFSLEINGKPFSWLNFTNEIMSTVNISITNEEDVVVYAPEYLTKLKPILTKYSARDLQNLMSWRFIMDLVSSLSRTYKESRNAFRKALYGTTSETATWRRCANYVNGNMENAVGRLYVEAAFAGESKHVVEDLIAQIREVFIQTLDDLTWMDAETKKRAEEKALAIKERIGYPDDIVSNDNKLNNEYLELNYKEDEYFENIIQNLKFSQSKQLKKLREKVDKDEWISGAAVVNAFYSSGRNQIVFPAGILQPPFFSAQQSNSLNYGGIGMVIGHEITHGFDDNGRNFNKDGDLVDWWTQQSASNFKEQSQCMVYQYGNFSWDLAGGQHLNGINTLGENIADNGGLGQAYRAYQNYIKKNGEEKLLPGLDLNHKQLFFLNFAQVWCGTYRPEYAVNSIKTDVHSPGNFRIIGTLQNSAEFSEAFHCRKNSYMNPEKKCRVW

Structure (SMILES): C[C@H](O)[C@H]1NC(=O)[C@@H](Cc2cnc[nH]2)NC(=O)[C@@H](CO)NC(=O)[C@@H](Cc2cnc[nH]2)NC(=O)[C@@H](NC(=O)CC[C@H](NC(=O)c2ccc(NCc3cnc4nc(N)[nH]c(=O)c4n3)cc2)C(=O)O)Cc2cn(nn2)CCCC[C@@H](C(=O)NCCOCCOCCOCC(=O)N[C@@H](CCCCNC(=O)CON)C(N)=O)NC(=O)[C@@H](C)NC1=O [compound 0328, Fol-hshta-PEG3-Lys(AO)] ({Pteroyl-γGlu}-[Pra][dH][dS][dH][dT][dA][Lys(N3)][AEEEA]K(X1)-NH2; triazole 1-7)
fraction unbound at 4 h, 2 μM ([1]; human, plasma, AO-containing constructs, (FB), read-out: Plasma % Bound, Hu): 0.57
recovery at 4 h, 2 μM ([1]; human, plasma, AO-containing constructs, (FB), read-out: Plasma protein binding % Recovery, Hu): 85%
fraction unbound at 4 h, 2 μM ([2]; CD-1, mouse, plasma, AO-containing constructs, (FB), read-out: Plasma % Bound, Mu): 0.798
recovery at 4 h, 2 μM ([2]; CD-1, mouse, plasma, AO-containing constructs, (FB), read-out: Plasma protein binding % Recovery, Mu): 115%

Structure (SMILES): C[C@H](O)[C@H]1NC(=O)[C@@H](Cc2ccc(O)cc2)NC(=O)[C@@H](CCCNC(=N)N)NC(=O)[C@@H](CCC(=O)O)NC(=O)[C@@H](CC(=O)O)NC(=O)[C@@H](NC(=O)[C@H](Cc2cn(CCOCCOCCOCCNC(=O)CC[C@H](NC(=O)c3ccc(NCc4cnc5nc(N)[nH]c(=O)c5n4)cc3)C(=O)O)nn2)NC(=O)CCOCCOCCOCCOCCOCCOCCOCCOCCOCCOCCNC(=O)CCOCCOCCOCCOCCOCCOCCOCCOCCOCCOCCNC(=O)CCCC[C@@H]2SC[C@@H]3NC(=O)N[C@@H]32)Cc2cn(nn2)CCCC[C@@H](C(N)=O)NC1=O [Pra(Az4-PEG3-folate)-deryt]
EC50 (FOLR1; read-out: EC50 (ELISA, FOLR1)): 0.27 nM

Structure (SMILES): C[C@H](O)[C@H]1NC(=O)[C@@H](Cc2c[nH]cn2)NC(=O)[C@@H](CO)NC(=O)[C@@H](Cc2c[nH]cn2)NC(=O)[C@@H](NC(=O)CC[C@H](NC(=O)c2ccc(NCc3cnc4nc(N)[nH]c(=O)c4n3)cc2)C(=O)O)Cc2cn(nn2)CCCC[C@@H](C(=O)NCCOCCOCCOCC(=O)N[C@@H](CCCCNC(=O)CN2CCN(CC(=O)O)CCN(CC(=O)O)CCN(CC(=O)O)CC2)C(N)=O)NC(=O)[C@@H](C)NC1=O [compound 1189, Fol-hshta-PEG3-Lys(DOTA)] ({Pteroyl-γGlu}-[Pra][dH][dS][dH][dT][dA][Lys(N3)][AEEEA]K(DOTA)-NH2; triazole 1-7)
recovery ([1]; human plasma, read-out: Plasma protein binding % Recovery, Hu): 102%
fraction unbound ([1]; human, plasma, human plasma, read-out: Plasma % Bound, Hu (converted)): 0.54
fraction unbound ([2]; CD-1 mouse plasma, read-out: Plasma % Bound, Mu (converted)): 0.705
recovery ([2]; CD-1 mouse plasma, read-out: Plasma protein binding % Recovery, Mu): 97.4%

Structure (SMILES): C[C@H](O)[C@H]1NC(=O)[C@@H](Cc2ccc(O)cc2)NC(=O)[C@@H](CCCNC(=N)N)NC(=O)[C@@H](CCC(=O)O)NC(=O)[C@@H](CC(=O)O)NC(=O)[C@@H](NC(=O)COCCOCCOCCNC(=O)CCCC[C@@H]2SC[C@@H]3NC(=O)N[C@@H]32)Cc2cn(nn2)CCCC[C@@H](C(N)=O)NC1=O [deryt] ({Biotin-AEEEA}-[Pra][dD][dE][dR][dY][dT][Lys(N3)]-NH2; triazole 1-7)
EC50 (FOLR1; PCC alone, read-out: EC50): 10000 nM

Structure (SMILES): C[C@H](O)[C@H]1NC(=O)[C@@H](Cc2c[nH]cn2)NC(=O)[C@@H](CO)NC(=O)[C@@H](Cc2c[nH]cn2)NC(=O)[C@@H](NC(=O)CCOCCOCCOCCOCCOCCOCCOCCNC(=O)CC[C@H](NC(=O)c2ccc(NCc3cnc4nc(N)[nH]c(=O)c4n3)cc2)C(=O)O)Cc2cn(nn2)CCCC[C@@H](C(=O)NCCOCCOCCOCCOCCOCCOCCOCCOCCOCCOCCC(=O)NCCOCCOCCOCCOCCOCCOCCOCCOCCOCCOCCC(=O)N[C@@H](CCCCNC(=O)CCCC[C@@H]2SC[C@@H]3NC(=O)N[C@@H]32)C(N)=O)NC(=O)[C@@H](C)NC1=O [Folate-PEG7-hshta] ({Pteroyl-γGlu-PEG7}-[Pra][dH][dS][dH][dT][dA][Lys(N3)][PEG10][PEG10]K(Biotin)-NH2; triazole 1-7)
EC50 (FOLR1; read-out: EC50 (ELISA, FOLR1)): 1 nM

Second part, led by results:

EC50 (FOLR1; read-out: EC50 (ELISA, FOLR1)): 0.9 nM
Structure (SMILES): C[C@H](O)[C@H]1NC(=O)[C@@H](Cc2c[nH]cn2)NC(=O)[C@@H](CO)NC(=O)[C@@H](Cc2c[nH]cn2)NC(=O)[C@@H](NC(=O)[C@H]2CCCN2C(=O)CC[C@H](NC(=O)c2ccc(NCc3cnc4nc(N)[nH]c(=O)c4n3)cc2)C(=O)O)Cc2cn(nn2)CCCC[C@@H](C(=O)NCCOCCOCCOCCOCCOCCOCCOCCOCCOCCOCCC(=O)NCCOCCOCCOCCOCCOCCOCCOCCOCCOCCOCCC(=O)N[C@@H](CCCCNC(=O)CCCC[C@@H]2SC[C@@H]3NC(=O)N[C@@H]32)C(N)=O)NC(=O)[C@@H](C)NC1=O [Folate-Pro-hshta] ({Pteroyl-γGlu}-[dP][Pra][dH][dS][dH][dT][dA][Lys(N3)][PEG10][PEG10]K(Biotin)-NH2; triazole 2-8)

in vitro Assay Data (NEP assay) (human recombinant NEP; Table 7, AO-containing constructs): Cleavage of —G—F—K-
Structure (SMILES): Cc1ccc(CCCC(=O)NCCCC[C@H](NC(=O)[C@@H]2CCCCn3cc(nn3)C[C@H](NC(=O)CC[C@H](NC(=O)c3ccc(NCc4cnc5nc(N)[nH]c(=O)c5n4)cc3)C(=O)O)C(=O)N[C@H](Cc3cnc[nH]3)C(=O)N[C@H](CO)C(=O)N[C@H](Cc3cnc[nH]3)C(=O)N[C@H]([C@H](C)O)C(=O)N[C@H](C)C(=O)N2)C(=O)NCC(=O)N[C@@H](Cc2ccccc2)C(=O)N[C@@H](CCCCNC(=O)CON)C(=O)O)cc1 [compound 3304, Fol-hshta-Lys(4-MPBA)-Gly-Phe-Lys(AO)] ({Pteroyl-γGlu}-[Pra][dH][dS][dH][dT][dA][Lys(N3)]K(Butanoyl(4-(4-MePh)))GFK(X1)-OH; triazole 1-7)

NEP-mediated cleavage (human recombinant NEP; 1 nM and 0.1 nM NEP): partial cleavage
NEP-mediated cleavage (human recombinant NEP; 10 nM NEP): complete consumption of the peptide
in vitro Assay Data (NEP assay) (human recombinant NEP; Table 2): Cleavage of -G-F-K-
NEP-mediated cleavage (human recombinant NEP; below 0.1 nM NEP): no cleavage
Structure (SMILES): C[C@H](O)[C@H]1NC(=O)[C@@H](Cc2c[nH]cn2)NC(=O)[C@@H](CO)NC(=O)[C@@H](Cc2c[nH]cn2)NC(=O)[C@@H](NC(=O)CC[C@H](NC(=O)c2ccc(NCc3cnc4nc(N)[nH]c(=O)c4n3)cc2)C(=O)O)Cc2cn(nn2)CCCC[C@@H](C(=O)NCC(=O)N[C@@H](Cc2ccccc2)C(=O)N[C@@H](CCCCNC(=O)CN2CCN(CC(=O)O)CCN(CC(=O)O)CCN(CC(=O)O)CC2)C(=O)O)NC(=O)[C@@H](C)NC1=O [compound 7327, folate-hshta-Gly-Phe-Lys(DOTA)] ({Pteroyl-γGlu}-[Pra][dH][dS][dH][dT][dA][Lys(N3)]GFK(DOTA)-OH; triazole 1-7)
site of neprilysin cleavage (human recombinant NEP): cleaved at the amide bond between Gly and Phe

EC50 (FOLR1; read-out: EC50 (ELISA, FOLR1)): 0.9 nM
Structure (SMILES): C[C@H](O)[C@H]1NC(=O)[C@@H](Cc2c[nH]cn2)NC(=O)[C@@H](CO)NC(=O)[C@@H](Cc2c[nH]cn2)NC(=O)[C@@H](NC(=O)CNC(=O)CC[C@H](NC(=O)c2ccc(NCc3cnc4nc(N)[nH]c(=O)c4n3)cc2)C(=O)O)Cc2cn(nn2)CCCC[C@@H](C(=O)NCCOCCOCCOCCOCCOCCOCCOCCOCCOCCOCCC(=O)NCCOCCOCCOCCOCCOCCOCCOCCOCCOCCOCCC(=O)N[C@@H](CCCCNC(=O)CCCC[C@@H]2SC[C@@H]3NC(=O)N[C@@H]32)C(N)=O)NC(=O)[C@@H](C)NC1=O [Folate-Gly-hshta] ({Pteroyl-γGlu}-G[Pra][dH][dS][dH][dT][dA][Lys(N3)][PEG10][PEG10]K(Biotin)-NH2; triazole 2-8)
